Data set [1] deals with patients receiving cisplatin. Conditions: cited from earlier work.
The test system of data set [2] is cisplatin hearing loss model. The text has this:
A solution of freshly prepared sodium thiosulfate solution was loaded in a Hamilton syringe with 26 G needle.

For data set [3] the following is noted: after STS local administration. As to the method: The time-concentration data was used for calculations. The area under the concentration-time curve (AUC) was determined by the trapezoidal rule. Terminal elimination half-lives of sodium thiosulfate (STS) in perilymph and plasma were determined by use of WIN NONLIN version 2.0 SCI.
30 guinea pigs (250-350 g) without sign of otitis media stayed for ˜3 days acclimation, and ready for PK study. Two anesthesia methods (Zoletil+Xylazine with head up 30 min) and Isoflurane (animal wake up immediately post-injection)] were used. 15 animals for each group.
The subjection guinea pig was anesthetized with zolazepam hydrochloride (Zoletil) and Xylazine or isoflurane inhalation. A solution of freshly prepared sodium thiosulfate solution was loaded in a Hamilton syringe with 26 G needle. The needle was carefully inserted into the left middle ear cavity via the tympanic membrane aiming to cochlear round window. ˜50 μL of dosing solution was injected. The animal was positioned head up for ˜30 min prior to waking up in Zoletil and Xylazine or wake up immediately in isoflurane inhalation.
In C-subgroup of each group, animal blood was systemically drawn (˜100 uL) via bilateral saphenous vein at the multiple time points. Put the collection blood in heparinized tube and stay ˜20 min. ˜50 μL of plasma was collected in microtube and put in −80° C. for future analysis.
STS concentrations were quantitatively analyzed by HPLC using an LC-20AT with a SPD-M20A UV-Vis detector (Shimadzu, Kyoto, Japan) and a LiChrospher RP-select B LiChroCART 250-4 […] column (EMD Millipore Corp, Darmstadt, Germany). All samples were prepared using a method similar to that described by Togawa et al. (1992).

Data set [4] can be described thus: Calculated osmolarity of STS formulation. The data set is classed as physicochemical. The conditions noted are these: aqueous solution of sodium thiosulfate 0.1M to 0.5M.
The test system of data set [5] is cisplatin induced hearing loss. The conditions noted are these: intratympanic administration, multiple clinical trials; cited from earlier work.
Data set [6] relates to cisplatin induced hearing loss. The conditions noted are these: intratympanic injection, animal studies; cited from earlier work.
Data set [7] deals with cisplatin induced hearing loss. Conditions: systemic administration, humans; cited from earlier work.

Molecules are shown by their SMILES. Like-named read-outs stand apart in the source and are kept apart here.

As to `N.N.[Cl][Pt][Cl]` [cisplatin, Cisplatin], the cure rate in data set [1] (cisplatin based chemotherapy, testicular cancer) is given as more than 90%. For the same compound, the “patients developing hearing loss” value in data set [1] (human, in vivo) is 60%-80%.
As for `O=S([O-])([O-])=S.[Na+].[Na+]` [sodium thiosulfate], the hearing protection entry in data set [2] (0.2M concentration, simple aqueous formulation without gelling agent, guinea pig cisplatin hearing loss model) is reported as “full hearing protection”. Further, in data set [2] (all groups (2.5%, 5% and 10% sodium thiosulfate), TT or IT injection ~30 min before cisplatin 10 mg/kg iv, ABR 7 days after infusion, treated vs untreated contralateral ear), the “protection of the sodium thiosulfate treated ears (ABR)” value was “nearly completed protection”. For the same compound, in data set [3], the “Tmax of systemic thiosulfate” value was “approximately 30 min”, the systemic thiosulfate concentration entry was “increased” and the “time until systemic thiosulfate concentration recovered to normal” value is “around 1 hour”. For the same compound, the calculated osmolarity in data set [4] is less than 1500 mOsm/L. Besides, the hearing protection result in data set [5] is reported as “no meaningful hearing protection”. The “effect on cisplatin induced hearing loss” value in data set [6] is given as “prevented the cisplatin induced hearing loss”. Also, the “effect on cisplatin induced hearing loss” value in data set [7] is recorded as “mitigate cisplatin induced hearing loss”.

The values are drawn from patent US20250065090A1, “DEVICE AND METHOD FOR DELIVERY OF A HEARING DRUG FORMULATION” (Corti Therapeutics Pte. Ltd., priority 2023, published 2025).
